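Dose response: 5 concentrations. Exposure: 48 h. Format: 96-well plates. Endpoint: linear interpolation; highest concentration if not reached. The concentration for full growth arrest is given as TGI.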
Tests used:
Assay in all cases: growth of human tumour cells (NCI), 48 h
ACHN renal = system: ACHN renal
UACC-257 melanoma = system: UACC-257 melanoma
MCF7 breast = system: MCF7 breast
SK-MEL-28 melanoma = system: SK-MEL-28 melanoma
HCT-116 colon = system: HCT-116 colon
MALME-3M melanoma = system: MALME-3M melanoma
SK-MEL-5 melanoma = system: SK-MEL-5 melanoma
MDA-MB-231 breast = system: MDA-MB-231 breast
DU-145 prostate = system: DU-145 prostate
MDA-MB-435 = system: MDA-MB-435
COLO 205 colon = system: COLO 205 colon
PC-3 prostate = system: PC-3 prostate
HCT-15 colon = system: HCT-15 colon
A549 NSCLC = system: A549 NSCLC
SW-620 colon = system: SW-620 colon
EKVX NSCLC = system: EKVX NSCLC
SF-295 CNS = system: SF-295 CNS
RPMI-8226 leukemia = system: RPMI-8226 leukemia
T-47D breast = system: T-47D breast
K-562 leukemia = system: K-562 leukemia

Structure (SMILES)	TGI (ACHN renal)	TGI (UACC-257 melanoma)	TGI (MCF7 breast)	TGI (SK-MEL-28 melanoma)	TGI (HCT-116 colon)	TGI (MALME-3M melanoma)	TGI (SK-MEL-5 melanoma)	TGI (MDA-MB-231 breast)	TGI (DU-145 prostate)	TGI (MDA-MB-435)	TGI (COLO 205 colon)	TGI (PC-3 prostate)	TGI (HCT-15 colon)	TGI (A549 NSCLC)	TGI (SW-620 colon)	TGI (EKVX NSCLC)	TGI (SF-295 CNS)	TGI (RPMI-8226 leukemia)	TGI (T-47D breast)	TGI (K-562 leukemia)
C#CCN(Cc1ccc2nc(-c3ccccc3)c(Cl)nc2c1)c1ccc(F)cc1	> 100 µM	> 100 µM	> 100 µM	> 100 µM	> 100 µM	> 100 µM	> 100 µM	> 100 µM	> 100 µM	> 100 µM	> 100 µM	> 100 µM	> 100 µM	> 100 µM	> 100 µM	> 100 µM	> 100 µM	> 100 µM	> 100 µM	–
C[N+]1(C)C2CC(OC(=O)C(CO)c3ccccc3)CC1C1OC12 (stereo not given)	> 100 µM	> 100 µM	> 100 µM	> 100 µM	> 100 µM	> 100 µM	> 100 µM	> 100 µM	> 100 µM	> 100 µM	> 100 µM	> 100 µM	> 100 µM	> 100 µM	> 100 µM	> 100 µM	> 100 µM	> 100 µM	> 100 µM	> 100 µM
C=C1c2nc3ccccc3n2C=C(c2ccc(OC)cc2)N1c1ccc(OCCN2CCCCC2)cc1	> 81.7 µM	10.8 µM	> 100 µM	> 100 µM	> 42.4 µM	> 100 µM	> 58.5 µM	> 64.7 µM	> 100 µM	> 74.9 µM	36.4 µM	> 51.3 µM	> 100 µM	> 84.6 µM	52.3 µM	> 100 µM	> 100 µM	18.1 µM	> 100 µM	> 100 µM
NS(=O)(=O)c1ccc(NC(=S)NC(=O)Nc2ccc(Cl)c(Cl)c2)cc1	32.2 µM	41.4 µM	30.2 µM	43.5 µM	27.7 µM	33.5 µM	31.1 µM	33.5 µM	33.7 µM	35.7 µM	32.3 µM	30 µM	29.8 µM	31.7 µM	35.9 µM	51 µM	30.8 µM	> 85.3 µM	33.3 µM	> 82.6 µM
Cc1cn2cc(-c3cccs3)nc2s1	> 100 µM	> 100 µM	> 100 µM	> 100 µM	> 100 µM	> 100 µM	> 100 µM	> 100 µM	> 100 µM	> 100 µM	> 100 µM	> 100 µM	> 100 µM	> 100 µM	> 100 µM	> 100 µM	> 100 µM	> 100 µM	> 100 µM	> 100 µM
CC(NCc1c(O)ccc2c(-c3ccccc3)cc(=O)oc12)C(=O)O (stereo not given)	> 100 µM	> 100 µM	> 100 µM	> 100 µM	> 100 µM	> 100 µM	> 100 µM	> 100 µM	> 100 µM	> 100 µM	> 100 µM	> 100 µM	> 100 µM	> 100 µM	> 100 µM	> 100 µM	> 100 µM	> 100 µM	> 100 µM	> 100 µM
CC(=O)c1ccc(Br)cc1NC1=CC(=O)c2ncccc2C1=O	12.5 µM	4.94 µM	11.6 µM	20.7 µM	4.5 µM	5.69 µM	1.3 µM	10.8 µM	16.4 µM	3.06 µM	11.4 µM	13.5 µM	10.3 µM	10.6 µM	–	19.4 µM	14.3 µM	8.95 µM	9.37 µM	10.1 µM
Clc1ccc(Cc2nc3ccccc3o2)cc1	> 100 µM	> 100 µM	> 100 µM	> 100 µM	> 100 µM	> 100 µM	> 100 µM	> 100 µM	> 100 µM	> 100 µM	> 100 µM	> 100 µM	> 100 µM	> 100 µM	> 100 µM	> 100 µM	> 100 µM	> 100 µM	> 100 µM	> 100 µM
CCCN(CCC)C(=S)Sc1nc(C)nc(N2CCN(c3nc(C)nc(SC(=S)N(CCC)CCC)c3[N+](=O)[O-])CC2)c1[N+](=O)[O-]	40.9 µM	54.2 µM	11.9 µM	36.9 µM	16.9 µM	45.6 µM	28.2 µM	20.3 µM	> 100 µM	> 65.9 µM	19 µM	53.4 µM	32.1 µM	> 84.5 µM	17.1 µM	> 83 µM	> 58.1 µM	> 38.2 µM	39.9 µM	–
C=CCOC(=O)Cn1cnc2c(N)ncnc21	> 100 µM	> 100 µM	> 100 µM	> 100 µM	> 100 µM	> 100 µM	> 100 µM	> 100 µM	> 100 µM	> 100 µM	> 100 µM	> 100 µM	> 100 µM	> 100 µM	> 100 µM	> 100 µM	> 100 µM	> 100 µM	> 100 µM	> 100 µM
C#CCOC(=O)C(N)CC(N)=O (stereo not given)	> 100 µM	> 100 µM	> 100 µM	> 100 µM	> 100 µM	> 100 µM	> 100 µM	> 100 µM	> 100 µM	> 100 µM	> 100 µM	> 100 µM	> 100 µM	> 100 µM	> 100 µM	> 100 µM	> 100 µM	> 100 µM	> 100 µM	> 100 µM
COC1=C(C(c2cc(OC)c(OC)c(OC)c2)c2cc3c(cc2OC)OCO3)C(=O)OC1 (stereo not given)	> 79.3 µM	> 100 µM	> 82.3 µM	87.9 µM	33.5 µM	> 73.2 µM	> 62.6 µM	> 93.5 µM	70.5 µM	17.5 µM	53.2 µM	> 70.4 µM	> 100 µM	> 67.1 µM	> 100 µM	> 81.6 µM	51.4 µM	> 100 µM	> 100 µM	> 100 µM
NC(N)=N/N=C/c1c(-c2ccccc2[N+](=O)[O-])nc2sccn12	> 100 µM	35.6 µM	38.1 µM	> 100 µM	34.4 µM	32.3 µM	30.8 µM	33.4 µM	> 100 µM	35.1 µM	29.4 µM	71.1 µM	> 100 µM	> 100 µM	38 µM	> 100 µM	50 µM	42.8 µM	59 µM	33.8 µM
N#Cc1cc2c(cc1C#N)SCCSCCCSCCS2	19.4 µM	> 100 µM	> 100 µM	> 100 µM	> 86.6 µM	> 65.1 µM	> 100 µM	29 µM	> 100 µM	> 100 µM	> 100 µM	> 82.8 µM	34.9 µM	> 100 µM	> 100 µM	> 100 µM	18.3 µM	> 100 µM	> 80.8 µM	> 100 µM
COc1ccc(/C=C/C(=O)c2cc(OC)cc(OC)c2)cc1	17.7 µM	26.9 µM	0.952 µM	27 µM	6.67 µM	27.8 µM	24.2 µM	> 28.3 µM	10.8 µM	3.45 µM	16.8 µM	20.7 µM	7.9 µM	6.96 µM	17.6 µM	20 µM	7.23 µM	26.1 µM	11.9 µM	> 100 µM
Cc1ccc(-c2n[nH]c(=O)n2/N=C\c2ccccc2O)cc1	> 100 µM	> 100 µM	> 100 µM	> 100 µM	> 100 µM	> 100 µM	> 100 µM	> 100 µM	> 100 µM	> 100 µM	> 100 µM	> 100 µM	> 100 µM	> 100 µM	> 100 µM	> 100 µM	> 100 µM	> 100 µM	> 100 µM	> 100 µM
COc1cc2nc(-c3cccs3)nc(Nc3cccc([N+](=O)[O-])c3)c2cc1OC	38.3 µM	44.2 µM	59.1 µM	58 µM	32.8 µM	35.2 µM	> 100 µM	35.9 µM	30 µM	31.6 µM	54.1 µM	37.8 µM	31.8 µM	53.8 µM	50.7 µM	33.1 µM	42.4 µM	98.3 µM	38.6 µM	> 100 µM
COc1cccc(OC)c1C1ON=C(c2ccccc2)N1C12CC3CC(CC(C3)C1)C2 (stereo not given)	> 100 µM	> 100 µM	> 100 µM	> 100 µM	> 100 µM	> 100 µM	> 100 µM	> 100 µM	> 100 µM	> 100 µM	> 100 µM	> 100 µM	> 100 µM	> 100 µM	> 100 µM	> 100 µM	> 100 µM	> 100 µM	> 100 µM	> 100 µM
Cc1ccc(S(=O)(=O)NNC(=O)Nc2cccc(C(F)(F)F)c2)cc1	> 100 µM	> 100 µM	> 100 µM	> 100 µM	> 100 µM	> 100 µM	> 100 µM	> 100 µM	> 100 µM	> 100 µM	> 100 µM	> 100 µM	> 100 µM	> 100 µM	> 100 µM	> 100 µM	> 100 µM	> 100 µM	> 100 µM	> 100 µM
CCNC1=C(NC(=O)c2ccc(F)cc2)C(=O)c2ccccc2C1=O	> 100 µM	46.9 µM	> 100 µM	> 100 µM	> 100 µM	47.5 µM	> 100 µM	> 100 µM	> 100 µM	35.9 µM	> 100 µM	> 100 µM	> 100 µM	> 100 µM	> 100 µM	> 100 µM	> 100 µM	> 100 µM	> 100 µM	> 100 µM
O=c1[nH]c(=S)[nH]cc1CN1CCOCC1	> 100 µM	> 100 µM	> 100 µM	> 100 µM	> 100 µM	> 100 µM	> 100 µM	> 100 µM	> 100 µM	> 100 µM	> 100 µM	> 100 µM	> 100 µM	> 100 µM	> 100 µM	> 100 µM	> 100 µM	> 100 µM	> 100 µM	> 100 µM
COc1ccc2c(c1)/C(=C/c1c(O)[nH]c(=S)[nH]c1=O)C=N2	> 100 µM	> 100 µM	> 100 µM	> 100 µM	> 100 µM	> 100 µM	> 100 µM	> 100 µM	> 100 µM	> 100 µM	> 100 µM	> 100 µM	> 100 µM	> 100 µM	> 100 µM	> 100 µM	> 100 µM	–	> 100 µM	> 100 µM
COc1cc2nc3n(c2cc1OC)C(O)c1c(Cl)nc(SC)nc1S3 (stereo not given)	42.2 µM	52.5 µM	15 µM	23.2 µM	10.3 µM	8.8 µM	8.94 µM	> 81 µM	24.1 µM	> 64.3 µM	22.9 µM	> 49.8 µM	12.3 µM	48 µM	22.8 µM	40.6 µM	> 94.5 µM	> 37 µM	> 59 µM	> 100 µM
Cc1cn([C@@H]2O[C@H](CO[Si](C)(C)C(C)(C)C)[C@]3(O[C@H]3C(=O)NO)[C@H]2O[Si](C)(C)C(C)(C)C)c(=O)[nH]c1=O	3.06 µM	6.92 µM	3.15 µM	3.33 µM	2.85 µM	5.07 µM	3.58 µM	4.19 µM	3.67 µM	4.38 µM	–	5.66 µM	3.62 µM	3.63 µM	4.28 µM	3.59 µM	3.4 µM	2.84 µM	4.07 µM	6.48 µM
